Experimental data taken from publication PMC8882856, “The affinity and selectivity of α‐adrenoceptor antagonists, antidepressants and antipsychotics for the human α2A, α2B, and α2C‐adrenoceptors and comparison with human α1 and β‐adrenoceptors” (Pharmacology Research & Perspectives, 2022).
Where two headings read alike, the source gives them in different places.

Legend:
human β1‐adrenoceptor [1] = target: T1, human β1‐adrenoceptor (Homo sapiens, UniProt P08588); settings: for Log KD β1: mean ± s.e.mean
human α2C‐adrenoceptor [2] = target: T2, human α2C‐adrenoceptor (Homo sapiens, UniProt P18825); experiment: ^3H‐rauwolscine whole cell competition binding, CHO‐α2C cells; settings: for Selectivity ratio α2A vs α2C (higher affinity for α2C) / Selectivity ratio α2B vs α2C (higher affinity for α2C): ratio of KD values
T2 sequence (P18825 1-462): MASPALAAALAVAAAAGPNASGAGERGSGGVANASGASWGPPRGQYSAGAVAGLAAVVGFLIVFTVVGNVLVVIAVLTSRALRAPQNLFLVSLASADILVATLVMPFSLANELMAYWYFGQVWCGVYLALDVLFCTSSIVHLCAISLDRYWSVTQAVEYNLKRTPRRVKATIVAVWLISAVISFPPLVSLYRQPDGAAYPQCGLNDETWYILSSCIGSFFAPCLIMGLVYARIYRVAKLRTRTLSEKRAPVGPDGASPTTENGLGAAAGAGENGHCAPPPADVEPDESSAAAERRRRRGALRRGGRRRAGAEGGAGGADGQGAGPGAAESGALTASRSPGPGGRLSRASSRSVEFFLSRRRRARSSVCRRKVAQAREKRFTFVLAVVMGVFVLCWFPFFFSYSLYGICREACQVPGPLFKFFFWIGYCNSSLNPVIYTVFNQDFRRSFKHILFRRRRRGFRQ

human α2C‐adrenoceptor [3] = target: T2, human α2C‐adrenoceptor
human α2B‐adrenoceptor [4] = target: T3, human α2B‐adrenoceptor (Homo sapiens, UniProt P18089)
T3 sequence (P18089 1-450): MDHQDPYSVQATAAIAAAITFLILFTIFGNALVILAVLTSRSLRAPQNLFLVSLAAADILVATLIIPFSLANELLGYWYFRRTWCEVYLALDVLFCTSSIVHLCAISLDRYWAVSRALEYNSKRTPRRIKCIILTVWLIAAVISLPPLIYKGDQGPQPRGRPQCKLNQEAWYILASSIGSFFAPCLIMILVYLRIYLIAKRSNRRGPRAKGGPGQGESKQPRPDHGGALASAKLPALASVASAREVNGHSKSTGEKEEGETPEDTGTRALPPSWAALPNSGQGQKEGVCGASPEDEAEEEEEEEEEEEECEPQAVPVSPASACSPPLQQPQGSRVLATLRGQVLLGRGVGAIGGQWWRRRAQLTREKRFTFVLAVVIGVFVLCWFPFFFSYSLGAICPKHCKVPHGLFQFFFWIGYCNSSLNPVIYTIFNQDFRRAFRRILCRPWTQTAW

human α2A‐adrenoceptor [5] = target: T4, human α2A‐adrenoceptor (Homo sapiens, UniProt P08913)
T4 sequence (P08913 1-465): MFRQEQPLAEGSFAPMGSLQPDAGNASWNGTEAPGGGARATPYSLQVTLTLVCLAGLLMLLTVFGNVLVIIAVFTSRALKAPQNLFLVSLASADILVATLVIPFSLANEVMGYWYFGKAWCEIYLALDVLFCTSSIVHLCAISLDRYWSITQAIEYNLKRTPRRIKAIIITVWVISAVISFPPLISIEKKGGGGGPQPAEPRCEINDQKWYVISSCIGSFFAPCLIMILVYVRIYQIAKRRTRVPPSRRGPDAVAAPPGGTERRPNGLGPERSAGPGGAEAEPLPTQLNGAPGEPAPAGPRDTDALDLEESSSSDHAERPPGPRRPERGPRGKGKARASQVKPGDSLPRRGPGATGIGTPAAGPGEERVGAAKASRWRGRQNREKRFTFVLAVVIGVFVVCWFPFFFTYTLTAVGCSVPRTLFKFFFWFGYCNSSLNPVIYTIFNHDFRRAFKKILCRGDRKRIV

human α2A‐adrenoceptor [6] = target: T4, human α2A‐adrenoceptor; experiment: ^3H‐rauwolscine whole cell competition binding, CHO‐α2A cells; settings: for Selectivity ratio α2A vs α2B (higher affinity for α2A): ratio of KD values
human β2‐adrenoceptor = human β2‐adrenoceptor (Homo sapiens, UniProt P07550); type: binding; settings: for IC50 (log) β2, IC50>top concentration used / IC50: ^3H‐CGP12177, log value; for IC50: read-out: IC50 (log) β2, IC50>top concentration used (converted)
human α2B‐adrenoceptor [7] = target: T3, human α2B‐adrenoceptor; experiment: ^3H‐rauwolscine whole cell competition binding, CHO‐α2B cells; settings: for Selectivity ratio α2A vs α2B (higher affinity for α2B) / Selectivity ratio α2B vs α2C (higher affinity for α2B): ratio of KD values
human α1A‐adrenoceptor = target: human α1A‐adrenoceptor; set-up: method as in PMID 32608144; settings: identical whole cell method; ref [33]; read-out: α1A‐adrenoceptor affinity; cited from earlier work
human β1‐adrenoceptor [8] = target: T1, human β1‐adrenoceptor; experiment: cell-based
human α2A‐adrenoceptors = settings: cited from earlier work
human α2C‐adrenoceptor [9] = target: T2, human α2C‐adrenoceptor; experiment: cell-based
human α2B‐adrenoceptor [10] = target: T3, human α2B‐adrenoceptor; experiment: cell-based
human α2A‐adrenoceptor [11] = target: T4, human α2A‐adrenoceptor; experiment: cell-based
[12] = ^3H‐CGP12177 whole cell binding, log values, ^app = apparent KD, 'no binding to' = log top concentration
[13] = ^3H‐CGP12177 whole cell binding, log values, mean ± s.e.mean, ^app = apparent KD, 'no binding to' = log top concentration
[14] = this study, read-out: β2‐adrenoceptor affinity
[15] = ^3H‐CGP12177 whole cell binding, log values, mean ± s.e.mean, ^app = apparent KD, 'no binding to' = log top concentration, read-out: Log KD β2 (converted)

T1 sequence (P08588 whole entry): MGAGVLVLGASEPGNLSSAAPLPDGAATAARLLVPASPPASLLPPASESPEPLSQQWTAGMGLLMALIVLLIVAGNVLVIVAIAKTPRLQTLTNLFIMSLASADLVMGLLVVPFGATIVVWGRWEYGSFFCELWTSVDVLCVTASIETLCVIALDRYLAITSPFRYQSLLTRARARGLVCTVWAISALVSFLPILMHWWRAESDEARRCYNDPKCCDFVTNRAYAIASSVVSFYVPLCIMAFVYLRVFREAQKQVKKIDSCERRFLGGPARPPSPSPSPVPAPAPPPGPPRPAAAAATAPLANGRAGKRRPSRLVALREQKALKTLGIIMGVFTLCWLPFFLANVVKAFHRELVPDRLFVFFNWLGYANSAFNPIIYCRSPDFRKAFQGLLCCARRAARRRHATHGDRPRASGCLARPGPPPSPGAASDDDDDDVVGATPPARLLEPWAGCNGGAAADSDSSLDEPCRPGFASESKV
Chain of human β2‐adrenoceptor (P07550 whole entry): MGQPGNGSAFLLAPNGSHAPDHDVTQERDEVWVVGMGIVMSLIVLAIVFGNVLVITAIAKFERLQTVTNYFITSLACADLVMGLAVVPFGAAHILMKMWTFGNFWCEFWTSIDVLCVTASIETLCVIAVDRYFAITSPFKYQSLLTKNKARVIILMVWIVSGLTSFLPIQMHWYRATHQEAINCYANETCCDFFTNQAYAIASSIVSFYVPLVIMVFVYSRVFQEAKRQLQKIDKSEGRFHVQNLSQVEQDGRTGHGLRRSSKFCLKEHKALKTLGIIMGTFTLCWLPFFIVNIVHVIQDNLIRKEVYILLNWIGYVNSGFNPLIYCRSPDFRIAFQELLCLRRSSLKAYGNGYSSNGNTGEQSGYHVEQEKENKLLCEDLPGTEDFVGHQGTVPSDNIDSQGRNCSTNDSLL

SMILES	Selectivity ratio α2A vs α2C (higher affinity for α2C) (human α2C‐adrenoceptor [2])	Selectivity ratio α2B vs α2C (higher affinity for α2C) (human α2C‐adrenoceptor [2])	Kd (human α2C‐adrenoceptor [3]) [µM]	Kd (human α2B‐adrenoceptor [4]) [µM]	Kd (human α2A‐adrenoceptor [5]) [µM]	Selectivity ratio α2A vs α2B (higher affinity for α2A) (human α2A‐adrenoceptor [6])	Selectivity ratio α2A vs α2B (higher affinity for α2B) (human α2B‐adrenoceptor [7])	IC50 (human β1‐adrenoceptor [8]) [µM]	Kd (human α2C‐adrenoceptor [9]) [µM]	Kd (human α2B‐adrenoceptor [10]) [µM]	Kd (human α2A‐adrenoceptor [11]) [µM]	other results
COc1ccccc1N1CCN(CC2CN3C(=O)N(C)c4ccccc4C3=N2)CC1 (centres unmarked) [2‐MPMDQ]	5.1	36.3	0.0316	1.15	0.162	7.1						IC50 (log) β1, IC50>top concentration used (human β1‐adrenoceptor [1]; ^3H‐CGP12177, log value): IC50>−5; IC50 (log) β2, IC50>top concentration used (human β2‐adrenoceptor): IC50>−5
O=C1Nc2ccccc2C2=NC(CN3CCN(c4ccccc4)CC3)CN12 (centres unmarked) [2‐PMDQ]	1.7	8.5	0.0851	0.724	0.148	4.9						Log KD β1 (human β1‐adrenoceptor [1]; [12]): No binding −4; IC50 (log) β2, IC50>top concentration used (human β2‐adrenoceptor): IC50>−4
COc1cccc2c1CCC[C@H]2CN(C)CCc1ccc2ccoc2c1.CS(=O)(=O)O [A80426]			0.0347	0.302								Log KD β2 (human β2‐adrenoceptor; [13]): −5.88 ± 0.04
O=C1c2ccccc2CCC1CNCCc1ccc(O)cc1 (centres unmarked) [HEAT]	4.0	2.1	0.00891	0.0191	0.0355		1.9					IC50 (log) β1, IC50>top concentration used (human β1‐adrenoceptor [1]; ^3H‐CGP12177, log value): IC50 ~−4.5; IC50 (log) β2, IC50>top concentration used (human β2‐adrenoceptor): IC50>−4
CN1CCN(c2ccc(Nc3c4ccccc4nc4ccccc34)cc2)CC1 [JP1302]												IC50 (log) β1, IC50>top concentration used (human β1‐adrenoceptor [1]): IC50>−4; Kd (human α1A‐adrenoceptor): 0.617 µM; α1A‐adrenoceptor affinity less than α2C affinity (human α2C‐adrenoceptor [2]): 5 fold; Log KD β2 (human β2‐adrenoceptor; [13]): −5.58 ± 0.08
CCS(=O)(=O)N1CCC[C@@H]2CN3CCc4cc(OC)ccc4[C@@H]3C[C@@H]21 [RS79948]	2.7	6.2	0.000437	0.00269	0.00117	2.3						Log KD β1 (human β1‐adrenoceptor [1]; [12]): −3.84 ± 0.05; IC50 (log) β2, IC50>top concentration used (human β2‐adrenoceptor): IC50>−3
Cc1c[nH]c(=O)n(CCCN2CCN(c3ccccc3OCC(F)(F)F)CC2)c1=O [RS100329]	6.6	22.4	0.0151	0.339	0.1	3.4						IC50 (log) β1, IC50>top concentration used (human β1‐adrenoceptor [1]; ^3H‐CGP12177, log value): IC50>−3; Log KD β2 (human β2‐adrenoceptor; [13]): −4.77 ± 0.07
COc1ccc(NC(=O)N2CCc3c2ccc2ccccc32)cc1N1CCN(C)CC1 [S32212]	3.6		0.0661	0.0158	0.24		15.1					IC50 (log) β1, IC50>top concentration used (human β1‐adrenoceptor [1]; ^3H‐CGP12177, log value): IC50>−5; selectivity α2B versus α2C (human α2B‐adrenoceptor [7]): less than 5 fold; Selectivity ratio α2B vs α2C (higher affinity for α2B) (human α2B‐adrenoceptor [7]): 4.2; IC50 (log) β2, IC50>top concentration used (human β2‐adrenoceptor): IC50>−5
CN1CCc2cccc(Cl)c2CC1 [SKF86466]												Kd (human β1‐adrenoceptor [8]): 1.2 µM; Kd (human α2A‐adrenoceptors; ref [23], read-out: human α2A‐affinity): 0.013 µM; Kd (human α2A‐adrenoceptor [6]): 0.513 µM; Log KD α2B (human α2B‐adrenoceptor [7]): −6.17 ± 0.047; Kd (human β2‐adrenoceptor; [14]): 0.25 µM
CN(C)CC/C=C1\c2ccccc2CSc2ccccc21 [dosulepin]	3.0						11.0	> 100	2.34	0.631	6.92	Selectivity ratio α2B vs α2C (higher affinity for α2B) (human α2B‐adrenoceptor [7]): 3.7; IC50 (human β2‐adrenoceptor): > 100 µM
OCCN1CCN(CCC=C2c3ccccc3Sc3ccc(C(F)(F)F)cc32)CC1 [flupenthixol]	6.0	4.0					1.5	> 10	0.132	0.525	0.794	IC50 (human β2‐adrenoceptor): > 10 µM
CCn1ccnc1CC1COc2ccccc2O1 (centres unmarked) [imiloxan]	2.5						4.0	~1000	0.537	0.331	1.32	Selectivity ratio α2B vs α2C (higher affinity for α2B) (human α2B‐adrenoceptor [7]): 1.6; Log KD β2 (human β2‐adrenoceptor; [13]): no binding to −3; Log KD β2 (human β2‐adrenoceptor; given as log KD (negative values), 3H-CGP12177 whole cell binding, CHO cells, mean ± s.e.mean): no binding -3
O=C(NC1CCN(CCc2c[nH]c3ccccc23)CC1)c1ccccc1 [indoramin]	4.7	2.2					2.1		1.58	3.47	7.41	Kd (human β1‐adrenoceptor [8]): 18.6 µM; Kd (human β2‐adrenoceptor; [15]): 5.37 µM
CN(CCCN1c2ccccc2CCc2ccccc21)CC(=O)c1ccc(Cl)cc1 [lofepramine]	2.6						5.5	> 100	5.25	2.51	13.8	Selectivity ratio α2B vs α2C (higher affinity for α2B) (human α2B‐adrenoceptor [7]): 2.1; IC50 (human β2‐adrenoceptor): > 100 µM
CN1CCN2c3ncccc3Cc3ccccc3C2C1 (centres unmarked) [mirtazepine]												Kd (human α2A‐adrenoceptors; ref [51], read-out: affinity at human α2A receptors): 0.079 to 0.126 µM
Cc1nc2n(c(=O)c1CCN1CCC(c3noc4cc(F)ccc34)CC1)CCCC2O (centres unmarked) [paliperidone]								> 31.6				Kd (human α1A‐adrenoceptor): 0.004 µM; Kd (human α2C‐adrenoceptor [2]): 0.014 µM; IC50 (human β2‐adrenoceptor): > 31.6 µM
COc1cc2nc(N3CCN(C(=O)c4ccco4)CC3)nc(N)c2cc1OC [prazosin]												Log KD β1 (human β1‐adrenoceptor [1]; [12]): No binding to −4; Log KD β1 (human β1‐adrenoceptor [1]; given as log KD (negative values), 3H-CGP12177 whole cell binding, CHO cells): No binding to -4; Kd (human α2A‐adrenoceptors; ref [6], read-out: affinity at human α2A‐adrenoceptors): 16 µM; Kd (human α2A‐adrenoceptors; ref [21], [28], read-out: affinity at human α2A‐adrenoceptors): 0.3 µM; Kd (human β2‐adrenoceptor; [15]): 7.94 µM
C[C@H](Cc1cc2c(c(C(N)=O)c1)N(CCCO)CC2)NCCOc1ccccc1OCC(F)(F)F [silodosin]								> 10	0.759		3.24	Kd (human α1A‐adrenoceptor): 0.00025 µM; IC50 (human α2B‐adrenoceptor [7]): > 10 µM; Kd (human β2‐adrenoceptor; [14]): ~0.03 µM
O=C1CCC(=O)N1C[C@H]1CC[C@H]2CN(c3ncccn3)CCN2C1 [sunepitron]	6.8	28.8				4.3		> 1000	0.00776	0.224	0.0525	IC50 (human β2‐adrenoceptor): > 1000 µM
Cc1ccc(Sc2ccccc2N2CCNCC2)c(C)c1 [vortioxetine]	1.6	3.3				2.0			1.45	4.79	2.34	Kd (human β1‐adrenoceptor [8]): 0.427 µM; Kd (human β2‐adrenoceptor; [14]): 0.178 µM
